The record followed here is patent US11123354B2, “Method for the treatment of osteoarthritis” (ABIOGEN PHARMA S.P.A., priority 2016, dated 2021).

Molecules are shown by their SMILES.

One data set concerns OA rats (MIA model). The data set can be described thus: Difference in edema size between right and left knees, MIA-induced OA rats, weekly intra-articular treatment. The data set is classed as in vivo, Sprague Dawley rats. The conditions noted are these: 4 weekly i.a. administrations. An excerpt: As an experimental model of OA induction, one involving the intra-articular administration of MIA (monosodium iodoacetate) was used.
The IA injection of MIA creates a model of acute inflammation that allows the study of cartilage degradation and joint pain.
The rats were anesthetized by a gaseous mixture of isoflurane and oxygen, and maintained in a supine position. Once the infrapatellar ligament was identified by touch, a single intra-articular injection of monosodium iodoacetate (MIA) was performed in the right knee, after having shaved the skin of the area, while keeping the joint slightly flexed. The amount of MIA injected was equal to 1 mg dissolved in 50 μl of saline solution, having a pH of about 4.5, as measured just before administration. The joint of the left knee was instead injected with 50 μl of saline solution alone, and this represented the internal control.
The treatment involved 4 weekly administrations of sodium chlodronate, followed by one week of follow-up.
The study included 8 treatment groups, each consisting of 10 male Sprague Dawley rats, specifically five treatment groups consisting of OA rats, on which the chlodronate doses of 2, 10, 20, 30, and 40 mg/ml, corresponding to 0.1, 0.5, 1, 1.5, and 2 mg/rat, were tested, and the remaining three groups represented by untreated OA rats, operated but untreated Sham rats, and rats administered only with placebo at pH 4.5.
During the treatment period, the animals were regularly checked in relation to the increase in body mass, food intake, and general health conditions. Clinical and hematological analyses were performed at the end of the study. The difference between the size of the edema in the two inflamed knees for all the observation groups, the final serum concentration of CTX-I (C-telopeptide of type I collagen), as a marker of bone turnover, and the final serum concentration of CTX-II (C-telopeptide of type II collagen), as a marker of cartilage turnover were investigated.
The measurement of the difference in size of the right and left knee edema (indicated with D and expressed in mm) was performed on anesthetized rats, by using a digital caliper (Digi-max slide caliper W/LCD readout Sigma Aldrich).

For data set [1], the system named is OA rats (bilateral anterior cruciate ligament surgical resection). The data set can be described thus: Histomorphometric evaluation of the cartilage area, OA rats by anterior cruciate ligament resection, monthly treatment. Format: in vivo, Sprague Dawley rats. The conditions noted are these: 4 monthly i.a. doses. The procedure: In this study, the efficacy of a treatment performed by monthly intra-articular administration of sodium chlodronate on male “Sprague Dawley” rats affected by OA was evaluated. The treatment involved 4 monthly doses of sodium chlodronate, followed by one month of follow-up.
In the experimental model, OA was induced in rats by bilateral anterior cruciate ligament surgical resection in both hind limbs.
A volume of 50 μL of treatment solution, having a pH of about 4.5, as measured just before administration, was injected into the intra-articular cavity of each knee.
The study included 5 treatment groups, each consisting of 10 male rats, specifically two treatment groups consisting of OA rats, on which chlodronate doses of 8 and 12 mg/ml, corresponding to 0.4 and 0.6 mg/rat, were tested, and remaining three groups represented by untreated OA rats, operated but untreated Sham rats, and rats receiving placebo alone.
During the treatment period, the animals were regularly checked in relation to the increase in body mass, food intake and general health conditions. Clinical and hematological analyses were performed at the end of the study. […]
Histomorphometric quantitative measurements of the cartilage area were performed using Image-Pro Plus 4.1 software for windows (Media Cybernetics, Maryland, USA). […]

In a further data set the test system is Sprague Dawley rats. The data set can be described thus: Local tolerability of repeated intra-articular injections. The data set is classed as in vivo. The procedure: With the aim to determine also the maximum dosages of chlodronate administrable in a single intra-articular injection, the local tolerability of intra-articular injections of sodium chlodronate, after repeated administration in the right knee of male and female Sprague Dawley rats, was investigated in this study.
Groups consisting of 5 male rats and 5 female rats each were subjected to intra-articular administration of aqueous solutions comprising 4, 14 and 40 mg/ml of sodium chlodronate (corresponding to dosages of 0.2, 0.7, and 2 mg/rat).
Each animal received a total of 12 intra-articular injections of chlodronate or placebo, administered as 3 injections per week (on Monday, Wednesday, and Friday) for 4 consecutive weeks. For the high dose group and the control group, the relative control groups with the same numerosity as the main groups were also provided.
During the treatment period, the animals were regularly checked in relation to the increase in body mass, food intake, and general health conditions.
At the end of the study, hematological analyses, chemical-clinical analyses, urino-analysis, and necropsy were performed.

Setting [2] is: 4, 14 and 40 mg/ml, 12 i.a. injections (3 per week, 4 weeks).
The mark [3] stands for this setting: repeated intra-articular administration, rats.

Take `O=P([O-])(O)C(Cl)(Cl)P(=O)([O-])O.[Na+].[Na+]` [Sodium Chlodronate, sodium chlodronate]: the “D, Mean Value (mm) ± SEM (difference in size of right and left knee edema)” value with OA rats (MIA model) (2 mg/ml (0.1 mg/rat)) came to 0.37 ± 0.067 mm; with OA rats (MIA model) (10 mg/ml (0.5 mg/rat)), 0.28 ± 0.063 mm; with OA rats (MIA model) (20 mg/ml (1 mg/rat)), 0.27 ± 0.047 mm; with OA rats (MIA model) (30 mg/ml (1.5 mg/rat)), 0.11 ± 0.043 mm; in the data set on OA rats (MIA model) (40 mg/ml (2 mg/rat)) it was 0.28 ± 0.033 mm. Also, the “Cartilage Area Average Value ± SEM” value was found to be 486 ± 157.7 in data set [1] (8 mg/ml (0.4 mg/rat)) and 435 ± 125.9 in data set [1] (12 mg/ml (0.6 mg/rat)). Further, in the data set with Sprague Dawley rats (setting [2]), the “hematological analyses with differential leucocyte count and urinary analyses” value is given as “no alterations due to the treatment”. In the data set with Sprague Dawley rats (setting [2]), the necropsy examination entry was “No abnormalities”. For the same compound, the “body weight and food consumption” value in the data set on Sprague Dawley rats (4, 14 and 40 mg/ml, 12 i.a. injections (3 per week, 4 weeks), all animals) is “normal”. Besides, the “mortality, behavioral or clinical changes related to the treatment” value in the data set on Sprague Dawley rats (4, 14 and 40 mg/ml, 12 i.a. injections (3 per week, 4 weeks), male and female rats) is reported as “neither mortality nor behavioral or clinical changes”. Moreover, in the data set on Sprague Dawley rats (females, highest dose (40 mg/ml, 2 mg/rat), 12 i.a. injections), the “renal effect / electrolyte serum concentration” value is recorded as “slight renal suffering with an increase in electrolyte serum concentration”. The “ALP and ALT values in serum (initial hepatic suffering)” value with Sprague Dawley rats (males, highest dose (40 mg/ml, 2 mg/rat), 12 i.a. injections) is “significant increase”. Further, the “Maximum Tolerated Dose (MTD)” value in the data set with Sprague Dawley rats (setting [3]) was found to be 40 mg/mL. The “NOAEL dose (No Observed Adverse Effect Level)” value with Sprague Dawley rats (setting [3]) stood at 14 mg/mL.
